# Measurements published in US12577232B2, “N-heterocycle substituted tryptamine derivatives and methods of using” (ENVERIC B[…] INC., priority 2024, dated 2026).
# Several values for one entry are separate records, joined by “and”; a condition that tells them apart may be missing. Equal values may be shown once.
# How the values were obtained:
# [1] = tested on: human model (NT2) neurons; test: Neuroplastogenicity (neurite outgrowth) assay in NT2 neurons; format: cell-based; parameters: key: a positive (+) designation indicating strong evidence of enhanced neurite outgrowth in drug-treated NT2 cells compared to vehicle-treated cells; a negative (−) designation indicating weak or no evidence of enhanced neurite outgrowth in drug-treated NT2 cells compared to vehicle-treated cells; settings: 1 or 10 μM, 48 h, visual inspection vs vehicle (0.1% DMSO)
# Source text: Classic psychedelics such as psilocybin and DMT show potential to treat anxiety and depression, and it has been theorized that such long-term improvements arise because these drugs rapidly and lastingly stimulate neuroplasticity (Calder and Hasler, 2023, Neuropsychopharmacol. 48:104-112). Thus, it was of interest to determine the potential of new compounds as neuroplastogens. Herein, we assess the capacity of various compounds to enhance neurite outgrowth in human model (NT2) neurons.
# Human NT2/D1 precursor cells were purchased from the American Type Culture Collection (ATCC, Manassas, VA, USA). Neuronal differentiation was carried out as previously described (Roloff et al., 2015, PloS ONE 10:e0118536) with minor modifications. Firstly, NT2/D1 cells were seeded in T-25 suspension culture flasks (REF #690190, Greiner bio-one, Germany). Each flask contains a minimum of 5×10^6 cells in 10 ml of DMEM/F12 supplemented with 10% fetal bovine serum (FBS), 1% penicillin and streptomycin and 10 μM retinoic acid (RA) medium to start neuronal differentiation. The cells were cultured for 3 days in free floating medium. At the end of the incubation cells were trypsinized and collected by centrifugation, mechanically dispersed, and counted. Counted cells were seeded along Poly D-Lysine (PDL) coated cover slips (12 mm; diameter round, Fisher Scientific; GG-12-PDL) containing a minimum of 0.1×10^5 cells in culture medium without RA. The next day culture medium was replaced with RA medium containing 2% of FBS. These cells cultured for 5 days and two days later, RA medium was changed.
# After cells had successfully attached and established along coverslips, the RA medium was replaced with new medium containing 2% FBS and one of the following: (1) test compound (1 or 10 μM), (2) RhoK (ROCK) inhibitor Y-27632 (1 μM) as a positive control (Dihydrochloride; Sigma-Aldrich) (Roloff et al., 2015, PloS ONE 10:e0118536); (3) DMT (1 or 10 μM) as a positive control (Calder and Hasler, 2023, Neuropsychopharmacol. 48:104-112), or (4) vehicle (0.1% DMSO) as a negative control. These cells were incubated for 48 hours under standard conditions (370C, 5% CO2). The cells cultured along coverslips were collected after 48 hours of treatment. The coverslips washed with calcium chloride and magnesium chloride-free phosphate buffered saline (PBS) pH 7.4 (Gibco, #70011-044) and fixed in paraformaldehyde (PFA) 4% in PBS (#J61899, thermoscientific) for 15 min at room temperature (RT) and washed three times with 0.01% of Triton-X100 in PBS (PBST) to remove remaining PFA and to permeabilize the cells. Non-specific binding sites were blocked with 5% of Bovine Serum Albumin (BSA) solution (#9048-46-8, Millipore) in PBST for 60 minutes at RT. Rabbit monoclonal antibody β-III-tubulin (1:5,000, ab52623, Abcam) was applied overnight (O/N) at 4° C. Next day cells are washed three times in PBST, neurons were incubated with secondary antibody Donkey anti-rabbit IgG(H+L) Alexa Fluor™ Plus488 (1:5000 #A32790, Invitrogen) for 1 hour at RT. These coverslips were mounted on Gluoromount-G™, with 4′6-diamidino-2′henylindoldihydrochloride (DAPI) (#E141818, Invitrogen). The immunofluorescence images were analyzed using an Olympus VS110 slide scanner microscope.
# B-III-Tubulin immunofluorescence was quantified using ImageJ. Briefly, Corrected Total Cell Fluorescence (CTCF) was acquired for at least ˜8-10 representative cells, where CTCF=Integrated Density−[Area of selected cell*Mean Fluorescence of background]. The CTCF values, referred to herein as ‘signal intensities’, were used to calculate overall means±SD for each treatment. One-Way ANOVA was used to compare treatments. Further, the mean of each treatment was compared with the mean of the control treatment (RA-differentiated cells treated with vehicle, 0.1% DMSO) using Dunnett's multiple comparison procedure. […]
# [2] = target: T1, human serotonin transporter (SERT) (Homo sapiens, UniProt P31645); test: biochemical; format: binding; settings: 1 nM imipramine; membranes containing human SERT; read-out: SERT, Ki
# T1 construct: purchased PerkinElmer RBHSTM400UA
# T1 sequence (P31645 whole entry): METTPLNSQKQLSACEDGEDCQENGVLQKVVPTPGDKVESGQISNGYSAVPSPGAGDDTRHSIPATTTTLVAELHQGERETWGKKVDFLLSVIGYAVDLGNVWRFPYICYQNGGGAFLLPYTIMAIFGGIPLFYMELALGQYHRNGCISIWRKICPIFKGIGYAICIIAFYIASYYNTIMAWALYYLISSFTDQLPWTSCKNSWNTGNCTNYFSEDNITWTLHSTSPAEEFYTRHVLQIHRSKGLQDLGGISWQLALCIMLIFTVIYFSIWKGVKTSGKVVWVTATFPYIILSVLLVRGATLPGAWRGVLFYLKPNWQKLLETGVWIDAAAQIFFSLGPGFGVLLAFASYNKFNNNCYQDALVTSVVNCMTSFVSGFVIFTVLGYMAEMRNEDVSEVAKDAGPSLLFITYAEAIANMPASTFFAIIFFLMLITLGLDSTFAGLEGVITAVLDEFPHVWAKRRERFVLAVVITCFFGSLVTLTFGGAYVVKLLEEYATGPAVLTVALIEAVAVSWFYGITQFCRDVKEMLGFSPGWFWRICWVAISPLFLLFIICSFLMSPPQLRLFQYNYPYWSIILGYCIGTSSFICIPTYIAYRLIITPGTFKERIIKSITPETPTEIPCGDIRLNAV
# Protocol: A commonly applied SERT binding assay involves competition binding assays employing radiolabelled ligands. […] Radioactive binding assays were carried out using the Scintillation Proximity Assay (SPA). For saturation binding assay, mixtures of 9 μg of membrane containing human SERT was pre-coupled to 1 mg of SPA beads at room temperature in a tube rotator for 1 hour in binding buffer (50 mM Tris-HCl pH7.4, 120 mM NaCl, 5 mM KCl, 1 mM ascorbic acid, 10 μM pargyline HCl). […] After incubation, the samples are read on a MicroBeta 2 Microplate Counter. Non-specific binding was carried out in the presence of 200 μM of clomipramine hydrochloride (C7291-1G, Sigma). Equilibrium binding constant for imipramine (KD) was determined from saturation binding curve using one-site saturation binding analysis from GraphPad PRISM software (Version 9.2.0). All test compounds were dissolved to 100 mM in DMSO and dilutions were carried out in assay buffer. […] Ki values were calculated from the competition displacement data using the competitive binding analysis from GraphPad PRISM software. […] Vehicle (DMSO) without drug was used as a negative control.
# [3] = target: T2, 5-HT2A receptor (Homo sapiens, UniProt P28223); test: 5-HT2A receptor radioligand competition assay (SPA, [3H]ketanserin); format: binding; settings: 1 nM [3H]ketanserin; membranes containing 5-HT2A; read-out: 5-HT2A, Ki
# T2 construct: purchased PerkinElmer ES-313-M400UA
# T2 sequence (P28223 whole entry): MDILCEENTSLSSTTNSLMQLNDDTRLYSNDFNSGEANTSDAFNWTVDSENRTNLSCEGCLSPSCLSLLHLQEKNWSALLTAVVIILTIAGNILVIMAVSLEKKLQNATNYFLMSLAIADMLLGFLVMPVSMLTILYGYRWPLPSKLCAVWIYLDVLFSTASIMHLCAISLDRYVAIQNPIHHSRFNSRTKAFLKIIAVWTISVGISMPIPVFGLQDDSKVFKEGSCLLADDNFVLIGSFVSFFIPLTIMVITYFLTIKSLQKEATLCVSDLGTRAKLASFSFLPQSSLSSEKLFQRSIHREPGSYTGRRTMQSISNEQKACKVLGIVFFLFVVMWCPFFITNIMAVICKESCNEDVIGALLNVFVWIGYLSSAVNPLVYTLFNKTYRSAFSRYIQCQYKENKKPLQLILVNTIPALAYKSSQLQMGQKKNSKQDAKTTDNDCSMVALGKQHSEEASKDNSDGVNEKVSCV
# Protocol: Competition assays were performed as for 5-HT1A assays with the following differences. […] Determination of non-specific binding was carried out in the presence of […] of spiperone (S7395-250MG, Sigma-Aldrich). Equilibrium binding constant for ketanserin (Kd) was determined from saturation binding curves using the ‘one-site saturation binding analysis’ method in GraphPad PRISM software (Version 9.2.0).
# [4] = tested on: C57BL/6 mice; test: Mouse Head Twitch Response (HTR) assay to assess hallucinogenic potential; format: in vivo; settings: 3 mg/kg i.p.; for mean HTR: 0-15 min interval (preliminary screening); for HTR compared with the HTR response for 5-Br-DMT (one-way ANOVA, Dunnett): alpha 0.05
# Protocol: All experiments were approved by the University of Calgary Animal Care and Use Committee in accordance with Canadian Council on Animal Care guidelines. C57BL/6-Elite mixed sex mice were obtained from Charles River (8 weeks old). Until the first experiment, mice were group-housed, then single-housed on a 12:12 h light/dark schedule (lights on at 07:00 hours) with ad libitum access to food and water. Before any behavioral screening, mice were handled and exposed to the testing chamber for at least 5 min each day for three successive days and habituated to the experimental room 1 h before testing. The testing chamber was cleaned with a 70% ethanol solution between experiments to eliminate odor from other mice. Drug compounds (100 mM in DMSO) were diluted in sterile excipient (10% EtOH/15% PEG400 in ddH2O) to 3 mg/kg (preliminary screening) or 0.5, 2, 4, 7, and 10 mg/kg (dose-curve analysis) and administered using intraperitoneal (i.p.) drug injections. […] HTR was analyzed during the 0-to-15-minute window following drug administration. […] Mean HTR between 10 and 5 signifies reduced hallucinogenic potential relative to positive controls.
Compound,Evidence of neurite outgrowth: Yes (+) or No (−) [1],Ki [2],Ki [3],mean HTR [4],"HTR compared with the HTR response for 5-Br-DMT (one-way ANOVA, Dunnett) [4]"
"5-bromo-dimethyltryptamine [Compound 5-Br-DMT, reference compound]",+,,,,
"COc1cc(CCN)c(OC)cc1Br [Compound 2C-B, reference compound]",,11.4 µM,,,
"COc1ccc2[nH]cc(CCN(C)C)c2c1 [Compound 5-MeO-DMT, 5-methoxy-dimethyltryptamine, reference compound]",+,,,,
"CCN(CC)CCc1c[nH]c2cc(F)ccc12 [Compound 6-F-DET, 6-fluoro-diethyltryptamine, reference compound]",+,,0.35 µM,,
CC(=O)c1[nH]c2cc(F)c(N3CCOCC3)cc2c1CCN(C)C [Compound (IX)],−,,14.2 µM,9.25,not statistically significantly higher
CN(C)CCc1c[nH]c2ccc(N3CCOCC3)cc12 [Compound (V)],+,,15 µM,7.8,not statistically significantly higher
CN(C)CCc1c[nH]c2ccc(N3CCC3)cc12 [Compound (VI)],+,,12 µM,11.5,
CN(C)CCc1c[nH]c2cc(F)c(N3CCOCC3)cc12 [Compound (VII)],+,,63.9 µM,7.75,not statistically significantly higher
CN(C)CCc1c[nH]c2cc(N3CCOCC3)ccc12 [Compound (VIII)],−,,10.9 µM,8.0,not statistically significantly higher
CN(C)CCc1c[nH]c2cc(N3CCCC3)ccc12 [Compound (X)],+,,7.8 µM,7.25,not statistically significantly higher
CN(C)CCc1c[nH]c2cc(N3CCOCC3)c(F)cc12 [Compound (XI)],−,,0.71 µM,10.5,
CN(C)CCc1c[nH]c2cc(F)cc(N3CCCC3)c12 [Compound (XIII)],+,,2.96 µM,7.75,not statistically significantly higher
CN(C)CCc1c[nH]c2cc(N3CCCC3)c(F)cc12 [Compound (XIV)],+,,3.1 µM and 3.06 µM,9.0,not statistically significantly higher
CN(C)CCc1c[nH]c2cc(F)cc(N3CCN(C)CC3)c12 [Compound (XIX)],,,,11.5,
CN(C)CCc1c[nH]c2cc(N3CCOCC3)cc(F)c12 [Compound (XVI)],,,6.2 µM and 6.19 µM,6.75,not statistically significantly higher
CN(CCc1c[nH]c2cc(N3CCOCC3)c(F)cc12)Cc1ccccc1 [Compound (XX)],+,,25.6 µM,7.25,not statistically significantly higher
CN(C)CCc1c[nH]c2cc(N3CCN(C)CC3)cc(F)c12 [Compound (XXI)],,,,9.25,not statistically significantly higher
CN(C)CCc1c[nH]c2cc(Cl)cc(N3CCOCC3)c12 [Compound (XXII)],,,,6.5,not statistically significantly higher
CN(C)CCc1c[nH]c2cc(Cl)cc(N3CCN(C)CC3)c12 [Compound (XXIII)],+,,12.5 µM,7.25,not statistically significantly higher
CN(C)CCc1c[nH]c2cc(F)c(N3CCN(C)CC3)cc12 [Compound (XXV)],−,,,8.5,not statistically significantly higher
CN(C)CCc1c[nH]c2cc(F)c(N3CCN(c4ccccc4)CC3)cc12 [Compound (XXVI)],,,,8.25,not statistically significantly higher
CCN(CC)CCc1c[nH]c2cc(F)cc(N3CCOCC3)c12 [Compound (XXVII)],−,,5.4 µM and 5.38 µM,8.0,not statistically significantly higher
"C[C@@H](N)[C@H]1CC[C@H](C(=O)Nc2ccncc2)CC1 [RhoK, reference compound]",+,,,,
"COc1ccc2c3c([nH]c2c1)CCN(C)CC3 [TBG, tabernanthalog, reference compound]",+,,0.8 µM,,
"N[C@@H](Cc1c[nH]c2ccccc12)C(=O)O [tryptophan, reference compound]",,,> 1000 µM,,
